Data published in PMC11912224, “A general approach for activity-based protein profiling of oxidoreductases with redox-differentiated diarylhalonium warheads” (Chemical Science, 2025).

Assays:
[1] = biological target: T1, retinol dehydrogenase RDH7 (Mus musculus, UniProt O88451); assay: covalent labelling, streptavidin enrichment, LC-MS/MS; details: 30 uM probe, 1 h, mouse liver pieces
T1 construct: native, in intact mouse liver pieces
T1 sequence (O88451 1-316): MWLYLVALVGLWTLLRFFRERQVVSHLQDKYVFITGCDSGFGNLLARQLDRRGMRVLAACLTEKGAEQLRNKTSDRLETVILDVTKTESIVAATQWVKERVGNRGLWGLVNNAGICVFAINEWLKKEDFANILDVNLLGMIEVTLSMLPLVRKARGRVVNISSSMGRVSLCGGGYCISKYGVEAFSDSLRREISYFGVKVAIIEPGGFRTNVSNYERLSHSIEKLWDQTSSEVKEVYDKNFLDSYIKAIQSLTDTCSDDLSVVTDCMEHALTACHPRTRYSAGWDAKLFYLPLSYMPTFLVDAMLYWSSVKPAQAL

heme oxygenase 2 (HMOX2) = biological target: T2, heme oxygenase 2 (HMOX2) (Mus musculus, UniProt O70252); assay: as above; details: 30 uM probe, 1 h, mouse liver pieces
T2 construct: native, in intact mouse liver pieces
T2 sequence (O70252 2-315): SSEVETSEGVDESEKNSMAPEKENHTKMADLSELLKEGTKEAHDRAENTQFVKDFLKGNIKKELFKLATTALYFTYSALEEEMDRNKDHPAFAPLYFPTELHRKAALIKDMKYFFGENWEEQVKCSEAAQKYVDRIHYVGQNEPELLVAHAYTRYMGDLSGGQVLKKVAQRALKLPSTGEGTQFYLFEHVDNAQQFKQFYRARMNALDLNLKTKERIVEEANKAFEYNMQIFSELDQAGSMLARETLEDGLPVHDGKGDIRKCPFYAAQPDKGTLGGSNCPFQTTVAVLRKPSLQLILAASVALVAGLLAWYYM

EUOX (eugenol oxidase) = biological target: T3, EUOX (eugenol oxidase) (Rhodococcus jostii, UniProt Q0SBK1); assay: activity-based labelling, in-gel fluorescence; format: binding; details: covalent; 30 uM probe, 1 h
T3 construct: gene RHA1_ro03282; recombinant; FAD enzyme; details not in main text
T3 sequence (Q0SBK1 1-526): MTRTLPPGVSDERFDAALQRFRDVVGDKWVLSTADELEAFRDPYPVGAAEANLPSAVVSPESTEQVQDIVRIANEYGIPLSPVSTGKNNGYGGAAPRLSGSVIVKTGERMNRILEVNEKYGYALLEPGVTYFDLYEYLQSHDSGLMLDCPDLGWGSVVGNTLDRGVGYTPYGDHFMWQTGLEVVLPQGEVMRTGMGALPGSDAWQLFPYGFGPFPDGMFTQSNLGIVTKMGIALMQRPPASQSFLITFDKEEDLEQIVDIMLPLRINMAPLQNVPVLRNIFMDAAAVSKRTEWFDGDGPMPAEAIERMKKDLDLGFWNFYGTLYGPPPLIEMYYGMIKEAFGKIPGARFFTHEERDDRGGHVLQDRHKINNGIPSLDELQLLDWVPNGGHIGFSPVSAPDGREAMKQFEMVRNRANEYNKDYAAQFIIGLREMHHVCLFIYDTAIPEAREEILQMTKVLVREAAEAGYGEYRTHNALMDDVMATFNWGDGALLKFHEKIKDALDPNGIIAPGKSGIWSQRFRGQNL

For `[N-]=[N+]=NCCCCCCCCCCNC(=O)c1ccc([I+]c2ccccc2)cc1` [3aa, diphenyliodonium probe 3aa], the “covalent labelling, streptavidin enrichment, LC-MS/MS” value [1] was “RDH7 and RDH16 were found to be labeled by probe 3aa very well”, the “covalent labelling, streptavidin enrichment, LC-MS/MS” value (heme oxygenase 2 (HMOX2)) was “HMOX2 was significantly enriched by diaryliodonium probes 3aa, 3ca, and 3da” and the “activity-based labelling, in-gel fluorescence” value (EUOX (eugenol oxidase)) was “led to the labeling of several of the tested oxidoreductases”.
